Laboratory results from ChEMBL document CHEMBL1137219, “Carbonic anhydrase inhibitors: the first on-resin screening of a 4-sulfamoylphenylthiourea library” (J Med Chem, 2004).

How the values were obtained:
Carbonic anhydrase 2 = Carbonic anhydrase 2 (Homo sapiens, UniProt P00918)
Description: Inhibitory activity against human Carbonic anhydrase II

Carbonic anhydrase 1 = Carbonic anhydrase 1 (Homo sapiens, UniProt P00915)
Sequence of Carbonic anhydrase 1 (P00915 whole entry): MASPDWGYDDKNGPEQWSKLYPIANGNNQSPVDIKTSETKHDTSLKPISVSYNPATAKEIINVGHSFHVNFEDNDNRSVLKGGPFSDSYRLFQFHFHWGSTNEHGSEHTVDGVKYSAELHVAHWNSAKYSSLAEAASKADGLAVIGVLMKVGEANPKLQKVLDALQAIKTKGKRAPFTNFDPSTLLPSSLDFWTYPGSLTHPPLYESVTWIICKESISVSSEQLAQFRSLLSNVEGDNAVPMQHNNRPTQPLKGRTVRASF
Description: Inhibitory activity against human Carbonic anhydrase I

In the case of `NS(=O)(=O)c1ccc(NC(=S)N2CCC[C@H]2C(=O)O)cc1`, the Ki (Carbonic anhydrase 2) is reported as 25 nM and the Ki (Carbonic anhydrase 1) is reported as 110 nM.

In the case of `CNC(=O)COC(=O)[C@H](CCSC)NC(=S)Nc1ccc(S(N)(=O)=O)cc1`, the Ki (Carbonic anhydrase 2) is reported as 5 nM and the Ki (Carbonic anhydrase 1) is reported as 31 nM.

`CSCC[C@H](/N=C(\S)Nc1ccc(S(N)(=O)=O)cc1)C(=O)O` showed a Ki (Carbonic anhydrase 2) of 4 nM and a Ki (Carbonic anhydrase 1) of 27 nM.

In the case of `CNC(=O)COc1ccc(COC(=O)[C@H](C)NC(=S)Nc2ccc(S(N)(=O)=O)cc2)cc1`, the Ki (Carbonic anhydrase 2) is reported as 16 nM and the Ki (Carbonic anhydrase 1) is reported as 58 nM.

`CNC(=O)COC(=O)[C@H](CC(C)C)/N=C(\S)Nc1ccc(S(N)(=O)=O)cc1` showed a Ki (Carbonic anhydrase 2) of 7 nM and a Ki (Carbonic anhydrase 1) of 23 nM.

With `NS(=O)(=O)c1ccc(N/C(S)=N/[C@@H](Cc2ccccc2)C(=O)O)cc1` the Ki (Carbonic anhydrase 2) was 6 nM and the Ki (Carbonic anhydrase 1) was 30 nM.

`NC(=O)C[C@H](/N=C(\S)Nc1ccc(S(N)(=O)=O)cc1)C(=O)O` was tested, and the Ki (Carbonic anhydrase 2) was 6 nM and the Ki (Carbonic anhydrase 1) was 27 nM.

Work on `CC[C@H](C)[C@H](/N=C(\S)Nc1ccc(S(N)(=O)=O)cc1)C(=O)OCC(=O)NC` yielded a Ki (Carbonic anhydrase 2) of 5 nM and a Ki (Carbonic anhydrase 1) of 25 nM.

For `CC[C@H](C)[C@H](NC(=S)Nc1ccc(S(N)(=O)=O)cc1)C(=O)O`, the Ki (Carbonic anhydrase 2) was 4 nM and the Ki (Carbonic anhydrase 1) was 22 nM.

In the case of `CNC(=O)COC(=O)[C@H](CCC(N)=O)/N=C(\S)Nc1ccc(S(N)(=O)=O)cc1`, the Ki (Carbonic anhydrase 2) is reported as 11 nM and the Ki (Carbonic anhydrase 1) is reported as 53 nM.

In the case of `CNC(=O)COC(=O)[C@H](CC(N)=O)/N=C(\S)Nc1ccc(S(N)(=O)=O)cc1`, the Ki (Carbonic anhydrase 2) is reported as 4 nM and the Ki (Carbonic anhydrase 1) is reported as 29 nM.

`CNC(=O)COC(=O)[C@@H](/N=C(\S)Nc1ccc(S(N)(=O)=O)cc1)C(C)C` gave a Ki (Carbonic anhydrase 2) of 5 nM and a Ki (Carbonic anhydrase 1) of 31 nM.

With `CC(C)[C@H](NC(=S)Nc1ccc(S(N)(=O)=O)cc1)C(=O)O` the Ki (Carbonic anhydrase 2) was 5 nM and the Ki (Carbonic anhydrase 1) was 23 nM.

In the case of `CC(C)C[C@H](NC(=S)Nc1ccc(S(N)(=O)=O)cc1)C(=O)O`, the Ki (Carbonic anhydrase 2) is reported as 5 nM and the Ki (Carbonic anhydrase 1) is reported as 21 nM.

Compound `CNC(=O)COC(=O)[C@@H]1CCCN1/C(S)=N\c1ccc(S(N)(=O)=O)cc1` has a Ki (Carbonic anhydrase 2) of 46 nM and a Ki (Carbonic anhydrase 1) of 197 nM.

`NS(=O)(=O)c1ccc(NC(=S)N[C@@H](Cc2c[nH]c3ccccc23)C(=O)O)cc1` gave a Ki (Carbonic anhydrase 2) of 11 nM and a Ki (Carbonic anhydrase 1) of 47 nM.

With `CNC(=O)COC(=O)[C@H](Cc1c[nH]c2ccccc12)NC(=S)Nc1ccc(S(N)(=O)=O)cc1` the Ki (Carbonic anhydrase 2) was 20 nM and the Ki (Carbonic anhydrase 1) was 64 nM.

With `CNC(=O)COC(=O)[C@H](Cc1ccccc1)NC(=S)Nc1ccc(S(N)(=O)=O)cc1` the Ki (Carbonic anhydrase 2) was 8 nM and the Ki (Carbonic anhydrase 1) was 42 nM.

Work on `NC(=O)CC[C@H](NC(=S)Nc1ccc(S(N)(=O)=O)cc1)C(=O)O` yielded a Ki (Carbonic anhydrase 2) of 9 nM and a Ki (Carbonic anhydrase 1) of 40 nM.

Compound `C[C@H](NC(=S)Nc1ccc(S(N)(=O)=O)cc1)C(=O)O` has a Ki (Carbonic anhydrase 2) of 12 nM and a Ki (Carbonic anhydrase 1) of 54 nM.
